From US12319672B2, “Alpha-D-galactopyranoside derivatives” (Idorsia Pharmaceuticals Ltd, priority 2019, dated 2025) come the findings set out here.

For one experiment, the target named is human Gal-3 (hGal-3) (Homo sapiens (Human), UniProt P17931). In words: Competitive binding assay: binding of biotinylated hGal-3 to microplate-adsorbed asialofetuin (ASF). Conditions: Activity on hGal-3; mean values of several measurements. In a few lines: (§1)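 For hGal-1, a variant with all six cysteines replaced by serines is preferred. Either galectin, biotinylated at 300-1000 ng/mL, competes with compound for microplate-bound ASF over 3 h at 4° C; peroxidase/ABTS detection gives IC50, averaged.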
Chain of human Gal-3 (hGal-3) (P17931 whole entry): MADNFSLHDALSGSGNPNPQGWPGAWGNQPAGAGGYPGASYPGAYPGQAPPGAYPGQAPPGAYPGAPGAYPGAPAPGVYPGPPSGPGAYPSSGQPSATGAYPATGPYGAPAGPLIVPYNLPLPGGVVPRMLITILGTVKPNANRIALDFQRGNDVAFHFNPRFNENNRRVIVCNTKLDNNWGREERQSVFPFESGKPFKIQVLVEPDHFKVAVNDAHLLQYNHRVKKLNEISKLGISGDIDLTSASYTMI

The next experiment has as its target human Gal-1 (hGal-1). In words: Competitive binding assay: binding of biotinylated hGal-1 to microplate-adsorbed asialofetuin (ASF). Conditions: Activities on hGal-1; mean values of several measurements. The procedure, abridged:
as §1

Chain of human Gal-1 (hGal-1) (P09382 2-135 limits assumed): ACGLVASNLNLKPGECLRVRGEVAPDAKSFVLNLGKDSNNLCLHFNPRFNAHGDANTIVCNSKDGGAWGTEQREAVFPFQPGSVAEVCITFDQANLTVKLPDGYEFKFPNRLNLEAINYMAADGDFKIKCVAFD

Turning to `COc1ccc(-c2cc(C[C@H]3O[C@H](CO)[C@H](O)[C@H](n4cc(-c5cc(F)c(F)c(F)c5)nn4)[C@H]3O)on2)cc1` [Example 2.01, (2R,3R,4R,5R,6R)-2-(hydroxymethyl)-6-((3-(4-methoxyphenyl)isoxazol-5-yl)methyl)-4-(4-(3,4,5-trifluorophenyl)-1H-1,2,3-triazol-1-yl)tetrahydro-2H-pyran-3,5-diol], the concentration for half-maximal inhibition (IC50) on human Gal-3 (hGal-3) came out at 840 nM; on human Gal-1 (hGal-1), 8360 nM.

In the case of `O=c1cc(C2=NO[C@@H](C[C@H]3O[C@H](CO)[C@H](O)[C@H](n4cc(-c5cc(F)c(F)c(F)c5)nn4)[C@H]3O)C2)cc[nH]1` [Example 2.04, 4-((R)-5-(((2R,3R,4R,5R,6R)-3,5-dihydroxy-6-(hydroxymethyl)-4-(4-(3,4,5-trifluorophenyl)-1H-1,2,3-triazol-1-yl)tetrahydro-2H-pyran-2-yl)methyl)-4,5-dihydroisoxazol-3-yl)pyridin-2(1H)-one], the values for the IC50 at human Gal-3 (hGal-3) and at human Gal-1 (hGal-1) were 910 nM and 12300 nM, respectively.

`O=c1cc(C2=NO[C@H](C[C@H]3O[C@H](CO)[C@H](O)[C@H](n4cc(-c5cc(F)c(F)c(F)c5)nn4)[C@H]3O)C2)cc[nH]1` [Example 2.05, 4-((S)-5-(((2R,3R,4R,5R,6R)-3,5-dihydroxy-6-(hydroxymethyl)-4-(4-(3,4,5-trifluorophenyl)-1H-1,2,3-triazol-1-yl)tetrahydro-2H-pyran-2-yl)methyl)-4,5-dihydroisoxazol-3-yl)pyridin-2(1H)-one]: the IC50 was 190 nM on human Gal-3 (hGal-3) and 390 nM at human Gal-1 (hGal-1).

For `CO[C@@H]1[C@@H](n2cc(-c3cc(F)c(F)c(F)c3)nn2)[C@@H](O)[C@@H](CO)O[C@@H]1C[C@@H]1CC(c2cc[nH]c(=O)c2)=NO1` [Example 2.07a, 4-((S)-5-(((2R,3R,4S,5R,6R)-5-hydroxy-6-(hydroxymethyl)-3-methoxy-4-(4-(3,4,5-trifluorophenyl)-1H-1,2,3-triazol-1-yl)tetrahydro-2H-pyran-2-yl)methyl)-4,5-dihydroisoxazol-3-yl)pyridin-2(1H)-one], the IC50 on human Gal-3 (hGal-3) was 260 nM; at human Gal-1 (hGal-1), 310 nM.

`CO[C@@H]1[C@@H](n2cc(-c3cc(F)c(F)c(F)c3)nn2)[C@@H](O)[C@@H](CO)O[C@@H]1C[C@H]1CC(c2cc[nH]c(=O)c2)=NO1` [Example 2.07b, 4-((R)-5-(((2R,3R,4S,5R,6R)-5-hydroxy-6-(hydroxymethyl)-3-methoxy-4-(4-(3,4,5-trifluorophenyl)-1H-1,2,3-triazol-1-yl)tetrahydro-2H-pyran-2-yl)methyl)-4,5-dihydroisoxazol-3-yl)pyridin-2(1H)-one]: the IC50 turned out to be 1700 nM on human Gal-3 (hGal-3) and 11700 nM at human Gal-1 (hGal-1).

`O=C(O)[C@H]1CC[C@](O)(c2cc(C[C@H]3O[C@H](CO)[C@H](O)[C@H](n4cc(-c5cc(F)c(F)c(F)c5)nn4)[C@H]3O)no2)CC1` [Example 2.11, (1S,4s)-4-(3-(((2R,3R,4R,5R,6R)-3,5-dihydroxy-6-(hydroxymethyl)-4-(4-(3,4,5-trifluorophenyl)-1H-1,2,3-triazol-1-yl)tetrahydro-2H-pyran-2-yl)methyl)isoxazol-5-yl)-4-hydroxycyclohexane-1-carboxylic acid]: the IC50 at human Gal-3 (hGal-3) was determined as 2540 nM; at human Gal-1 (hGal-1), 13700 nM.

Regarding `O=C1CCC(c2cc(C[C@H]3O[C@H](CO)[C@H](O)[C@H](n4cc(-c5cc(F)c(F)c(F)c5)nn4)[C@H]3O)no2)CC1` [Example 2.12, 4-(3-(((2R,3R,4R,5R,6R)-3,5-dihydroxy-6-(hydroxymethyl)-4-(4-(3,4,5-trifluorophenyl)-1H-1,2,3-triazol-1-yl)tetrahydro-2H-pyran-2-yl)methyl)isoxazol-5-yl)cyclohexan-1-one], the IC50 at human Gal-3 (hGal-3) is 190 nM; on human Gal-1 (hGal-1), 3650 nM.

Take `OC[C@H]1O[C@H](Cc2cc(C3CCC(O)CC3)on2)[C@H](O)[C@@H](n2cc(-c3cc(F)c(F)c(F)c3)nn2)[C@H]1O` (stereo partly drawn) [Example 2.13, (2R,3R,4R,5R,6R)-2-((5-(4-hydroxycyclohexyl)isoxazol-3-yl)methyl)-6-(hydroxymethyl)-4-(4-(3,4,5-trifluorophenyl)-1H-1,2,3-triazol-1-yl)tetrahydro-2H-pyran-3,5-diol]: the values for the IC50 on human Gal-3 (hGal-3) and on human Gal-1 (hGal-1) were 210 nM and 1990 nM, respectively.

For the molecule `OC[C@H]1O[C@H](Cc2cc(C3CCC(O)CC3)on2)[C@H](O)[C@@H](n2cc(-c3cc(F)c(F)c(F)c3)nn2)[C@H]1O` (stereo partly drawn) [Example 2.14, (2R,3R,4R,5R,6R)-2-((5-((1r,4r)-4-hydroxycyclohexyl)isoxazol-3-yl)methyl)-6-(hydroxymethyl)-4-(4-(3,4,5-trifluorophenyl)-1H-1,2,3-triazol-1-yl)tetrahydro-2H-pyran-3,5-diol], the values for the IC50 at human Gal-3 (hGal-3) and on human Gal-1 (hGal-1) were 190 nM and 4580 nM, respectively.

Take `CCC(=O)O[C@@H]1[C@@H](n2cc(-c3cc(F)c(F)c(F)c3)nn2)[C@@H](O)[C@@H](CO)O[C@@H]1Cc1cc(C2CCN(C(=O)OC(C)(C)C)CC2)on1` [Example 2.15, tert-butyl 4-(3-(((2R,3R,4S,5R,6R)-5-hydroxy-6-(hydroxymethyl)-3-(propionyloxy)-4-(4-(3,4,5-trifluorophenyl)-1H-1,2,3-triazol-1-yl)tetrahydro-2H-pyran-2-yl)methyl)isoxazol-5-yl)piperidine-1-carboxylate]: the IC50 at human Gal-3 (hGal-3) was found to be 95 nM; on human Gal-1 (hGal-1) it was 2140 nM.

For `CCC(=O)O[C@@H]1[C@@H](n2cc(-c3cc(F)c(F)c(F)c3)nn2)[C@@H](O)[C@@H](CO)O[C@@H]1Cc1cc(C2CCNCC2)on1` [Example 2.16, (2R,3R,4S,5R,6R)-5-hydroxy-6-(hydroxymethyl)-2-((5-(piperidin-4-yl)isoxazol-3-yl)methyl)-4-(4-(3,4,5-trifluorophenyl)-1H-1,2,3-triazol-1-yl)tetrahydro-2H-pyran-3-yl propionate], the IC50 on human Gal-3 (hGal-3) was 160 nM; on human Gal-1 (hGal-1), 11600 nM.

For the molecule `CCO[C@@H]1[C@@H](n2cc(-c3cc(F)c(F)c(F)c3)nn2)[C@@H](O)[C@@H](CO)O[C@@H]1Cc1cc(C2CCN(C(=O)OC(C)(C)C)CC2)on1` [Example 2.17, tert-butyl 4-(3-(((2R,3R,4S,5R,6R)-3-ethoxy-5-hydroxy-6-(hydroxymethyl)-4-(4-(3,4,5-trifluorophenyl)-1H-1,2,3-triazol-1-yl)tetrahydro-2H-pyran-2-yl)methyl)isoxazol-5-yl)piperidine-1-carboxylate], the results for the IC50 on human Gal-3 (hGal-3) and at human Gal-1 (hGal-1) were 130 nM and 780 nM, respectively.

Consider `CCC(=O)O[C@@H]1[C@@H](n2cc(-c3cc(F)c(F)c(F)c3)nn2)[C@@H](O)[C@@H](CO)O[C@@H]1Cc1cc(C2CCNCC2)on1` [Example 2.18, (2R,3R,4S,5R,6R)-5-hydroxy-6-(hydroxymethyl)-2-((5-(piperidin-4-yl)isoxazol-3-yl)methyl)-4-(4-(3,4,5-trifluorophenyl)-1H-1,2,3-triazol-1-yl)tetrahydro-2H-pyran-3-yl propionate], for which the results for the IC50 on human Gal-3 (hGal-3) and at human Gal-1 (hGal-1) were 220 nM and 6300 nM, respectively.

For the molecule `CCCO[C@@H]1[C@@H](n2cc(-c3cc(F)c(F)c(F)c3)nn2)[C@@H](O)[C@@H](CO)O[C@@H]1Cc1cc(C2CCN(C(=O)OC(C)(C)C)CC2)on1` [Example 2.19, tert-butyl 4-(3-(((2R,3R,4S,5R,6R)-5-hydroxy-6-(hydroxymethyl)-3-propoxy-4-(4-(3,4,5-trifluorophenyl)-1H-1,2,3-triazol-1-yl)tetrahydro-2H-pyran-2-yl)methyl)isoxazol-5-yl)piperidine-1-carboxylate], the IC50 at human Gal-3 (hGal-3) was found to be 170 nM; at human Gal-1 (hGal-1), 1050 nM.

Regarding `CCCCO[C@@H]1[C@@H](n2cc(-c3cc(F)c(F)c(F)c3)nn2)[C@@H](O)[C@@H](CO)O[C@@H]1Cc1cc(C2CCN(C(=O)OC(C)(C)C)CC2)on1` [Example 2.20, tert-butyl 4-(3-(((2R,3R,4S,5R,6R)-3-butoxy-5-hydroxy-6-(hydroxymethyl)-4-(4-(3,4,5-trifluorophenyl)-1H-1,2,3-triazol-1-yl)tetrahydro-2H-pyran-2-yl)methyl)isoxazol-5-yl)piperidine-1-carboxylate], the IC50 was 390 nM on human Gal-3 (hGal-3) and 2030 nM on human Gal-1 (hGal-1).

Turning to `CC(C)(C)OC(=O)N1CCC(c2cc(C[C@H]3O[C@H](CO)[C@H](O)[C@H](n4cc(-c5cc(F)c(F)c(F)c5)nn4)[C@H]3OCC(=O)O)no2)CC1` [Example 2.21, 2-(((2R,3R,4S,5R,6R)-2-((5-(1-(tert-butoxycarbonyl)piperidin-4-yl)isoxazol-3-yl)methyl)-5-hydroxy-6-(hydroxymethyl)-4-(4-(3,4,5-trifluorophenyl)-1H-1,2,3-triazol-1-yl)tetrahydro-2H-pyran-3-yl)oxy)acetic acid], the IC50 on human Gal-3 (hGal-3) is 22 nM; at human Gal-1 (hGal-1) it was 690 nM.

Turning to `CC(C)C(=O)O[C@@H]1[C@@H](n2cc(-c3cc(F)c(F)c(F)c3)nn2)[C@@H](O)[C@@H](CO)O[C@@H]1Cc1cc(C2CCN(C(=O)OC(C)(C)C)CC2)on1` [Example 2.22, tert-butyl 4-(3-(((2R,3R,4S,5R,6R)-5-hydroxy-6-(hydroxymethyl)-3-(isobutyryloxy)-4-(4-(3,4,5-trifluorophenyl)-1H-1,2,3-triazol-1-yl)tetrahydro-2H-pyran-2-yl)methyl)isoxazol-5-yl)piperidine-1-carboxylate], the half-inhibitory concentration (IC50) was found to be 200 nM on human Gal-3 (hGal-3) and 27300 nM on human Gal-1 (hGal-1).

`CC(C)O[C@@H]1[C@@H](n2cc(-c3cc(F)c(F)c(F)c3)nn2)[C@@H](O)[C@@H](CO)O[C@@H]1Cc1cc(C2CCN(C(=O)OC(C)(C)C)CC2)on1` [Example 2.23, tert-butyl 4-(3-(((2R,3R,4S,5R,6R)-5-hydroxy-6-(hydroxymethyl)-3-isopropoxy-4-(4-(3,4,5-trifluorophenyl)-1H-1,2,3-triazol-1-yl)tetrahydro-2H-pyran-2-yl)methyl)isoxazol-5-yl)piperidine-1-carboxylate]: the IC50 on human Gal-3 (hGal-3) stood at 220 nM; on human Gal-1 (hGal-1) it was 2050 nM.
